In patent US5153352A, “Process for preparation of intermediates of carbocyclic nucleoside analogs” (priority 1990, dated 1992):
Converted amounts (≈) assume the structure as drawn.

Columns and labels:
HSV-2 = assay: plaque reduction, HSV-2 in Vero cells; assay type: cell-based, Herpes simplex virus type 2; settings: Human alphaherpesvirus 2; HSV-2, Vero, plaque reduction 50%; read-out: MIC50
Description: After the adsorption period, the infected cell monolayers were treated in duplicate with serial dilutions of the test compound. Duplicate cell controls containing medium alone and virus controls containing medium and virus were run simultaneously with the test compound. […] Plaques visible to the unaided eye were counted and the mean number of plaques in the duplicate wells for each compound concentration tested and for the untreated, virus infected controls were determined.

mice = assay: toxicity in uninfected mice (Herpesvirus 1 study); assay type: in vivo, mouse; settings: 7 doses
Description: Four-week-old female outbred Swiss mice (CD 1, VAF+, Charles River Labs) were housed 5 per Microisolator® cage. Feed and water were supplied ad libitum. Fifteen mice were randomly assigned to each of the following treatment groups:
Test compounds were diluted in 0.4% carboxymethylcellulose (CMC) prepared in phosphate buffered saline (PBS) at concentrations consistent with dosing at 0.1 ml per 10 q of body weight. Compounds were administered subcutaneously once daily for a total of 7 doses. Five mice in each treatment group served as uninfected toxicity controls. The remaining ten mice in each group were challenged intraperitoneally with an LD90 dose of the twelfth in vivo passage of Herpesvirus 1 (strain 123). Virus challenge was administered two hours after the first dose of compound was given. Mortality was monitored daily for 21 days. The mortality rates, average day of death, geometric mean time to death and virus rating were calculated for each treatment group.

Epstein-Barr virus (EBV) = assay: EBV genome copies in virus producing cells (P3HR-1); assay type: cell-based; settings: P3HR-1 cells, 14 days, control 214
Description: Virus producing cells (P3HR-1) were exposed to test compound for 14 days and EBV genome copies per cell were determined by EBV specific cRNA DNA hybridization (Lin, et al., J. Virology 50 50-55 (1984). The results of this test are presented in Table 7.

Vero cells = settings: monkey
[1] = system: Human Immunodeficiency Virus (HIV); assay: HIV CPE inhibition assay in ATH8 cells; assay type: cell-based; set-up: ID50: unit not given beside the values
Description: The ATH8 human T-cell line expresses high levels of the CD4 surface antigen and is quite sensitive to the cytopathogenic effect (CPE) of HIV. The cells were propagated in RPMI 1640 medium supplemented with 4mM glutamine, 15% heat-inactivated fetal bovine serum (Biocell), antibiotics (50 units of penicillin and […] of streptomycin per ml), and 50 units of recombinant-derived human interleukin-2 (ala-125; AMGen Biologicals) per ml.
The clone H9 cell line is another CD4^+ human T-cell line which is permissive for HIV replication but largely resistant to virus induced CPE. H9 cells productively infected with the HTLV IIIB strain of HIV served as the source of infectious virus. These cells were propagated in RPMI 1640 medium supplemented with glutamine and antibiotics as described above, and with 20% heat-inactivated fetal bovine serum. Freshly harvested, undiluted culture supernatant from the H9/HTLV-IIIB producer cells was used for infectious virus inoculum.
The screening of compounds for antiviral activity was performed using a modification of the CPE inhibition assay originally developed by Broder and co workers. This assay is based on the ability of uninfected ATH8 cells to grow and form a pellet at the bottom of a culture tube. Starting about 4 days after HIV addition, infected ATH8 cells begin to die and the pellet starts to break up. By day 10 a clear differential is observable in the size of the cell pellet in uninfected control wells versus infected control wells. The protective effect of test compounds can be assessed by adding them at varying concentrations to the cultured cells at the time of virus infection, then monitoring the status of the cell pellet.
ATH8 cells were used as the primary target in the HIV induced CPE inhibition assay. Cells were treated with polybrene (2 ug/ml in growth medium) for 30 minutes at 37° C., then collected by gentle centrifugation (40×g for 15 minutes at room temperature) and resuspended in clarified (8000×g for 15 minutes at 4° C.) supernate freshly harvested from 48 hours post passage H9/HTL IIIB cells. Following a 60-minute adsorption period at 37° C., the cells were dispensed into the U-bottom wells of 96-well trays (1×10^4 cells in 0.1 ml per well). An equal volume (0.1 ml) of supplemented RPMI 1640 medium containing test compound and twice the normal concentration of interleukin-2 was then added to each well. Test compounds were evaluated at seven half-log dilutions ranging from 100 uq/ml to 0.1 uq/ml. […]
Between 7 and 10 days post infection, all wells were visually monitored for the degree of CPE inhibition as reflected by cell pellet size, and aliquots were taken from selected wells for determination of cell number and viability (based on trypan blue dye exclusion).

Structure (SMILES): Nc1nc2c(ncn2C2CC(CO)C2CO)c(=O)[nH]1 (stereo not shown) [Example 1I, 9-(2',3'-Bis(hydroxymethyl)cyclobutyl)guanine]
- EC50 (HSV-2): 1 µg/mL (≈ 3.77 µM)
- No. Dead/No. Uninfected (mice; 3.2 mg/kg s.c. once daily): 0/5
- No. Dead/No. Uninfected (mice; 10 mg/kg s.c. once daily): 0/5
- No. Dead/No. Uninfected (mice; 32 mg/kg s.c. once daily): 0/3
- EBV genome copies/cell (Epstein-Barr virus (EBV); 0.01 uM): 223 EBV genome copies/cell
- EBV genome copies/cell (Epstein-Barr virus (EBV); 0.10 uM): 181 EBV genome copies/cell
- EBV genome copies/cell (Epstein-Barr virus (EBV); 1.00 uM): 40 EBV genome copies/cell
- EBV genome copies/cell (Epstein-Barr virus (EBV); 5.00 uM): 12 EBV genome copies/cell
- EBV genome copies/cell (Epstein-Barr virus (EBV); 10.00 uM): 10 EBV genome copies/cell
- MTC (minimum drug concentration causing any cytotoxicity) (Vero cells): 320 µg/mL

Structure (SMILES): Nc1ncnc2c1ncn2C1CC(CO)C1CO (stereo not shown) [Example 4C, 9-(2',3'-Bis(hydroxymethyl)cyclobutyl)adenine]
- ID50 [1]: < 0.1
- TI [1]: 32
- VR [1]: 3.5
